Assay results: US20240194290A1, “HIDDEN ANTIBIOTICS IN THE HUMAN PROTEOME” (THE TRUSTEES OF THE UNIVERSITY OF PENNSYLVANIA, priority 2021, published 2024)
Ends that are not written are not given here.

Tests used:
P. aeruginosa PAO1 [1] = assay: Neutropenic thigh infection mouse model; assay type: in vivo, Pseudomonas aeruginosa; conditions: for anti-infective activity (FIG. 4E): alone, P. aeruginosa PAO1; for decrease of bacterial counts compared to untreated controls: mice, 25 μmol L^−1 intramuscular, three days post-treatment, P. aeruginosa
Excerpt: (§1) FIG. 4. Anti-infective activity and synergistic interactions of encrypted peptides in vivo. (FIG. 4A) Schematic of the skin abscess mouse model used to assess the anti-infective activity of selected encrypted peptides from plasma proteins. […] (FIG. 4C) Mouse weight was monitored throughout the experiment (2 days) to rule out potential toxic effects of the encrypted peptides. (FIG. 4D) Schematic of the neutropenic thigh infection mouse model used to assess the anti-infective activity of selected encrypted peptides from plasma proteins. […] (FIG. 4F) Mouse weight was monitored throughout the experiment (8 days) to rule out potential toxic effects of the encrypted peptides.
(§2) Next, the efficacy of the same encrypted peptides (SCUB1-SKE25 and SCUB3-MLP22) was assessed in monotherapy and in combination therapy in a murine thigh infection model (FIG. 4D). This preclinical model is sensitive, standardized, and widely used for assessing antibiotic translatability^43,44. Briefly, mice were rendered neutropenic by cyclophosphamide treatment prior to intramuscular infection with 10^6 cells mL^−1 of the bacterial pathogens P. aeruginosa and A. baumannii (FIG. 4E). Either a single dose of each encrypted peptide (at 25 μmol L^−1) or their combination (also at 25 μmol L^−1) were delivered to the infected site via intramuscular administration. Three days post-treatment, on average the peptides reduced the bacterial load of P. aeruginosa and A. baumannii by 4 and 2 orders of magnitude, respectively, compared to untreated mice.
(§3) Methods: Skin abscess infection mouse model. A. baumannii ATCC19606 and P. aeruginosa strain PAO1 were used to infect the murine skin. Briefly, bacteria were grown in tryptic soy broth (TSB) medium. Subsequently, cells were washed twice with sterile PBS (pH 7.4, 13,000 rpm for 1 min), and resuspended to a final concentration of 1×10^5 and 1×10^6 CFU/20 μL for A. baumannii and P. aeruginosa, respectively. Female CD-1 mice (six-weeks old) were anesthetized with isoflurane and had their backs shaved and a superficial linear skin abrasion was made with a needle in order to damage the stratum corneum and upper-layer of the epidermis. […] Animals were euthanized and the area of scarified skin was excised two- and four-days post-infection, homogenized using a bead beater for 20 minutes (25 Hz), and 10-fold serially diluted for CFU quantification. […] Prior to each injection, mice were anesthetized with isoflurane and monitored (respiratory rate and pedal reflexes). Next, we monitored the formation of the abscess and euthanized the mice. The infected area was excised three-days post-infection, homogenized using a bead beater for 20 min (25 Hz), and 10-fold serially diluted for CFU quantification. […]

A. baumannii ATCC19606 [2] = assay: Skin abscess infection mouse model; assay type: in vivo, Acinetobacter baumannii; conditions: for anti-infective activity (FIG. 4B): 25 μmol L^−1, A. baumannii ATCC19606; for reduction of bacterial load / bacterial counts: mice, single dose 25 μmol L^−1 to infected area, A. baumannii
Excerpt: as §1
(§4) To test whether the peptides retain their antimicrobial activity in a complex living system, their properties in two mouse models were assessed. […] Since these peptides are mostly found in plasma, a relevant skin abscess mouse model was used to test their anti-infective activity (FIG. 4A). Mice were infected with bacterial loads of 10^5 and 10^6 cells in 20 μL of the clinically relevant Gram-negative pathogens P. aeruginosa and A. baumannii, respectively (FIG. 4B). […] In order to validate the synergistic effects obtained in vitro (FIG. 3D and FIG. 9), infected mice were treated with combinations of encrypted peptides (FIG. 4B). […] No damage or deleterious effects exerted by the peptides were detected in the mice in any of our experiments.
as §3, with “epidermis. An aliquot of 20 μL containing the bacterial load in PBS was inoculated over each defined area containing the scratch with a pipette tip.” for “epidermis.”

A. baumannii ATCC19606 [3] = assay: Neutropenic thigh infection mouse model; assay type: in vivo, Acinetobacter baumannii; conditions: for anti-infective activity (FIG. 4E): alone, A. baumannii ATCC19606; for decrease of bacterial counts compared to untreated controls: mice, 25 μmol L^−1 intramuscular, three days post-treatment, A. baumannii
Excerpt: as §1, §2, §3

P. aeruginosa PAO1 [4] = assay: Skin abscess infection mouse model; assay type: in vivo, Pseudomonas aeruginosa; conditions: for anti-infective activity (FIG. 4B): 25 μmol L^−1, P. aeruginosa PAO1; for reduction of bacterial load / bacterial counts: mice, single dose 25 μmol L^−1 to infected area, P. aeruginosa
Excerpt: as §1, §4
as §3, with “epidermis. An aliquot of 20 μL containing the bacterial load in PBS was inoculated over each defined area containing the scratch with a pipette tip.” for “epidermis.”

S. epidermidis = assay: Outer membrane permeabilization (NPN uptake) assay; assay type: cell-based, Staphylococcus epidermidis; conditions: peptides at MIC
Protocol: (§5) FIG. 10. Membrane permeabilization and depolarization assays for several bacterial strains. […] FIG. 10B: Cytoplasmic membrane depolarization assays performed against P. aeruginosa PAO1 and the gut commensal B. fragilis ATCC25285.
(§6) Methods: Membrane depolarization assays. The cytoplasmic membrane depolarization activity of the peptides was determined by measurements of fluorescence of the membrane potential-sensitive dye, DiSC3(5). Briefly, A. baumannii ATCC19606, P. aeruginosa PAO1 and B. fragilis ATCC25285 were grown at 37° C. with agitation until they reached mid-log phase (OD600=0.5). […] Thereafter, the cells (100 μL) were incubated for 15 min with 20 nmol L^−1 of DiSC3(5) until a stable reduction of fluorescence was achieved, indicating the incorporation of the dye into the bacterial membrane. Membrane depolarization was then monitored by observing the change in the fluorescence emission intensity of the membrane potential-sensitive dye, DiSC3(5) (λex=622 nm, λem=670 nm), after the addition of peptides (100 μL solution at MIC values). […] The membrane permeability of the peptides was determined by using the N-phenyl-1-napthylamine (NPN) uptake assay. […] The background fluorescence was recorded at λex=350 nm and λem=420 nm. […]

P. aeruginosa PAO1 [5] = assay: Outer membrane permeabilization (NPN uptake) assay; assay type: cell-based, Pseudomonas aeruginosa; conditions: peptides at MIC
Protocol: as §5, §6

Sequence | anti-infective activity (FIG. 4E) (P. aeruginosa PAO1 [1]) | decrease of bacterial counts compared to untreated controls (P. aeruginosa PAO1 [1]) | anti-infective activity (FIG. 4B) (A. baumannii ATCC19606 [2]) | reduction of bacterial load / bacterial counts (A. baumannii ATCC19606 [2]) | anti-infective activity (FIG. 4E) (A. baumannii ATCC19606 [3]) | decrease of bacterial counts compared to untreated controls (A. baumannii ATCC19606 [3]) | anti-infective activity (FIG. 4B) (P. aeruginosa PAO1 [4]) | reduction of bacterial load / bacterial counts (P. aeruginosa PAO1 [4]) | outer membrane permeabilization (NPN) (S. epidermidis) | outer membrane permeabilization (NPN) (P. aeruginosa PAO1 [5])
MLPKSFIKLLRSKVSSFLRPYK [SCUB3-MLP22] | reduced infections | 3 orders of magnitude | inhibitory activity | 3 orders of magnitude | reduced infections | 3 orders of magnitude | inhibitory activity | 3 orders of magnitude | – | –
SKEMFPRSFIKLLRSKVSRFLRPYK [SCUB1-SKE25] | reduced infections | 3 orders of magnitude | inhibitory activity | 3 orders of magnitude | reduced infections | 3 orders of magnitude | inhibitory activity | 3 orders of magnitude | permeabilized | permeabilized
